Results taken from US4889906A, “Amine salts of 1,4,2-oxazaphospholidine-4-acetic acid, 2-alkoxy-2-oxides” (Monsanto Company, priority 1988, dated 1989).
Several values for one entry are separate records, joined by “and”; a condition that tells them apart may be missing. Equal entries are not always repeated. Structures can show the parent of a compound that is named as a salt.

What was measured:
Format in all cases: in vivo
Barnyardgrass = experiment: Post-emergent herbicide activity, greenhouse; conditions: 5.6 g/m^2
Source text: (§1) Top soil was placed in pans having holes in the bottom and compacted to a depth of 0.95 to 1.27 cm from the top of the pan. A predetermined number of seeds of each of several plant species or vegetative propagules for perennial plant species were placed on the soil and pressed into the soil surface. The seeds or propagules were covered with soil and leveled. The pans were then placed on a bench in the greenhouse and watered as needed for germination and growth. After the plants reached the desired age (2 to 3 weeks) each pan, except the control pans, was removed to a spraying chamber and sprayed by means of an atomizer. In the spray solution, an emulsifying agent was added to give a spray solution which contains about 0.4% by volume of the emulsifier. The spray solution contained a sufficient amount of the compound of Example 1 to give an application rate of the active ingredient of 2.8 g/m^2 (25 lbs. per acre) and 5.6 g/mz (50 lbs. per acre), while applying a total amount of solution equivalent to 187 ml/m^2 (200 gal per acre). The pans were returned to the greenhouse and watered as before, and the injury to the plants as compared to those in control pans was observed after 14 days after spraying, and again, 27 days after spraying.

Canada Thistle = experiment: Post-emergent herbicide activity, greenhouse; conditions: 5.6 g/m^2
Source text: as §1

Cocklebur = experiment: Post-emergent herbicide activity, greenhouse; conditions: 5.6 g/m^2
Source text: as §1

Common Lambsquarters = experiment: Post-emergent herbicide activity, greenhouse; conditions: 5.6 g/m^2
Source text: as §1

Downy Brome = experiment: Post-emergent herbicide activity, greenhouse; conditions: 5.6 g/m^2
Source text: as §1

Morningglory = experiment: Post-emergent herbicide activity, greenhouse; conditions: 5.6 g/m^2
Source text: as §1

Pennsylvania Smartweed = experiment: Post-emergent herbicide activity, greenhouse; conditions: 5.6 g/m^2
Source text: as §1

Quackgrass = experiment: Post-emergent herbicide activity, greenhouse; conditions: 5.6 g/m^2
Source text: as §1

Rhizone Johnsongrass = experiment: Post-emergent herbicide activity, greenhouse; conditions: 5.6 g/m^2
Source text: as §1

Velvetleaf = experiment: Post-emergent herbicide activity, greenhouse; conditions: 5.6 g/m^2
Source text: as §1

Yellow Nutsedge = experiment: Post-emergent herbicide activity, greenhouse; conditions: 5.6 g/m^2
Source text: as §1

[1] = test system: fescue (Kentucky bluegrass No. 31); experiment: Plant growth regulating activity, greenhouse; conditions: 0.56 g/m^2 (5 lbs. per acre), two weeks
Description: Established stands of fescue (Kentucky bluegrass No. 31) in pots having an area of about 100 cm (16 square inches) were trimmed to a uniform height. Duplicate pots were removed to a spraying chamber and sprayed by means of an atomizer as in Example 3. The application rate of the active ingredient was 0.56 g/m^2 (5 lbs. per acre) while applying a total amount of solution equivalent to 187 ml/m^2 (200 gal/acre). The pots were returned to the greenhouse and watered with the controls on a daily basis. After two weeks, the height of the grass was measured.

plants = experiment: Biological activity, greenhouse tests according to Examples 3 and 4; conditions: according to the procedure of Examples 3 and 4
Source text: as §1, with “The pans were returned to the greenhouse and watered as before, and the injury to the plants as compared to those in control pans was observed after 14 days after spraying, and again, 27 days after spraying.” left out
Established stands of fescue (Kentucky bluegrass No. 31) in pots having an area of about 100 cm (16 square inches) were trimmed to a uniform height. […] After two weeks, the height of the grass was measured. […]

## COP1(=O)CN(CC(=O)O)CO1 (stereo not drawn) [Example 1, triethylamine salt of 1,4,2-oxazaphospholidine-4-acetic acid, 2-methoxy-2-oxide]
Barnyardgrass; 14 days after spraying
  Plant Response After 14 Days: 1 (25-49% inhibition)
Barnyardgrass; 27 days after spraying
  Plant Response After 27 Days: 1 (25-49% inhibition)
Canada Thistle; 14 days after spraying
  Plant Response After 14 Days: 0 (0-24% inhibition)
Canada Thistle; 27 days after spraying
  Plant Response After 27 Days: 0 (0-24% inhibition)
Cocklebur; 14 days after spraying
  Plant Response After 14 Days: 1 (25-49% inhibition)
Cocklebur; 27 days after spraying
  Plant Response After 27 Days: 1 (25-49% inhibition)
Common Lambsquarters; 14 days after spraying
  Plant Response After 14 Days: 0 (0-24% inhibition)
Common Lambsquarters; 27 days after spraying
  Plant Response After 27 Days: 0 (0-24% inhibition)
Downy Brome; 14 days after spraying
  Plant Response After 14 Days: 0 (0-24% inhibition)
Downy Brome; 27 days after spraying
  Plant Response After 27 Days: 0 (0-24% inhibition)
Morningglory; 14 days after spraying
  Plant Response After 14 Days: 1 (25-49% inhibition)
Morningglory; 27 days after spraying
  Plant Response After 27 Days: 1 (25-49% inhibition)
Pennsylvania Smartweed; 14 days after spraying
  Plant Response After 14 Days: 0 (0-24% inhibition)
Pennsylvania Smartweed; 27 days after spraying
  Plant Response After 27 Days: 0 (0-24% inhibition)
Quackgrass; 14 days after spraying
  Plant Response After 14 Days: 0 (0-24% inhibition)
Quackgrass; 27 days after spraying
  Plant Response After 27 Days: 1 (25-49% inhibition)
Rhizone Johnsongrass; 14 days after spraying
  Plant Response After 14 Days: 0 (0-24% inhibition)
Rhizone Johnsongrass; 27 days after spraying
  Plant Response After 27 Days: 0 (0-24% inhibition)
Velvetleaf; 14 days after spraying
  Plant Response After 14 Days: 0 (0-24% inhibition)
Velvetleaf; 27 days after spraying
  Plant Response After 27 Days: 0 (0-24% inhibition)
Yellow Nutsedge; 14 days after spraying
  Plant Response After 14 Days: 0 (0-24% inhibition)
Yellow Nutsedge; 27 days after spraying
  Plant Response After 27 Days: 1 (25-49% inhibition)
[1]
  average growth rate of treated fescue relative to controls: 43 % of the controls
[1]; duplicate pots, control pots grew average 199.58 mm
  growth of treated grass over two-week period: 80 mm and 90 mm
[1]; fescue
  discoloration or other sign of phytotoxicity: did not show any discoloration or other sign of phytotoxicity

## COP1(=O)CN(CC(=O)O)CO1 (stereo not drawn) [Example 2, 1,4,2-oxazaphospholidine-4-acetic acid, 2-alkoxy-2-oxide]
plants
  biological activity (post-emergent herbicide and plant growth regulating), in words: Satisfactory results are achieved

## COP1(=O)CN(CC(=O)O)CO1 (stereo not drawn) [Example 5, Triisopropylamine Salt of 1,4,2-Oxazaphospholidine-4-Acetic Acid, 2-Methoxy-2-Oxide]
plants
  biological activity (post-emergent herbicide and plant growth regulating), in words: Satisfactory results are achieved
